For one compound, half-life, Papp A→B and inhibition results are on record in patent publication US20250214978A1, “AT2R AGONIST” (WUHAN HUMANWELL INNOVATIVE DRUG RESEARCH AND DEVELOPMENT …, priority 2022, published 2025).

Read-outs that look alike come from different tables or passages of the source.

Holding throughout (type): in vitro ADME
The nature of series [1]: Liver microsome stability assay. The settings on record: Human liver microsomes, NADPH, 37° C.; read-out: T1/2 (min) Human. How it is done:
The human liver microsome stability assay was performed by co-incubating the compound with human liver microsomes in vitro. The test compounds were first prepared as 10 mM stock solutions in DMSO solvent, and then diluted to 0.5 mM with acetonitrile. Human liver microsomes (Corning) were diluted with PBS to prepare a microsome/buffer solution, and this solution was used to dilute 0.5 mM of the compound to prepare a working solution. In the working solution, a concentration of the compound was 1.5 μM and a concentration of the human liver microsome was 0.75 mg/ml. A deep-well plate was taken, 30 μL of working solution was added to each well of the plate, and then 15 μL of pre-heated NADPH solution (6 mM) was added to start the reaction. The mixture was incubated at 37° C. 135 μL of acetonitrile was added to the corresponding wells to stop the reaction at 0 minute, 5 minutes, 15 minutes, 30 minute, and 45 minutes of incubation. Subsequent to the stop of the reaction by means of acetonitrile at the last time point of 45 minute, the plate was vortexed for 10 minutes (600 rpm/min) and then centrifuged for 15 minutes. […] The peak area ratios of the compound at 5 minutes, 15 minutes, 30 minutes, and 45 minutes were compared with the peak area ratio at 0 minute, and the remaining percentage of the compound at each time point was calculated. T1/2 was calculated using Graphpad8 software.

Series [2] can be described thus: Liver microsome stability assay. The note with it: Mouse liver microsomes; read-out: T1/2 (min) Mouse.
Series [3] in a line: Bidirectional permeability study in CACO-2 cells. The settings on record: human, pH 7.4, Caco-2 monolayer, pH 7.40. How it is done: Caco-2 cells were inoculated onto polyethylene membrane (PET) in 96-well inserted plates at a rate of 1×10^5 cells/cm^2, and the medium was changed every 4 to 5 days until day 21 to 28, to form a fused cell monolayer. The transport buffer in the assay was HBSS and 10.0 mM HEPES, with a pH of 7.40±0.05. The test compounds were subjected to a bidirectional test at 2.00 μM in the presence and absence of GF120918 (10.0 μM). Digoxin was subjected to a bidirectional test at 10.0 μM in the presence and absence of GF120918 (10.0 μM), while Nadolol and Metoprolol were subjected to a test from direction A to direction B at 2.00 μM in the absence of GF120918 (10.0 μM). The above tests were performed in duplicate. The final concentration of DMSO was adjusted to be lower than 1%. The plate was incubated in a CO2 incubator at 37° C.±1° C. for 2 hours, and 5% CO2 was added under saturated humidity without shaking. All the samples, after being mixed with acetonitrile containing internal standard, were centrifuged at 3,200 g for 10 minutes. […] The concentrations of the test compounds and control compounds in the starting solution, the donor solution, and the acceptor solution were quantified by LC-MS/MS based on a peak area ratio of the analyte to the internal standard.
After the transport assay, the integrity of the Caco-2 cell monolayer was determined using Lucifer Yellow Exclusion Assay.

Series [4] can be described thus: Liver microsome stability assay. The settings on record: dog; Canine liver microsomes; read-out: T1/2 (min) Canine.
The next series concerns the target CYP2C8 (Homo sapiens (Human), UniProt P10632). Kind of series: CYP inhibition assay in mixed human liver microsomes. The note with it: mixed (pooled) human liver microsomes, read-out: Inhibition rate % CYP2C8. Here is the method: (§1) The inhibitory effects of the compounds on seven enzymes, i.e., CYP1A2, CYP2C9, CYP2C19, CYP2D6, CYP3A4 (midazolam), CYP2B6, and CYP2C8, were evaluated at a concentration of 10 μM. Mixed human liver microsomes, which were previously stored in a −80° C. refrigerator before use, were taken out and thawed in a water bath at 37° C. before use, and placed on ice for further operation. 100 μL of microsome working solution was taken, and added with 2 μL of test product or positive inhibitor working solution. 2 μL of solvent was added to the solvent control. The mixture was pre-incubated in a water bath at 37° C. for 10 minutes. After preincubation, 98 μL of NADPH regeneration solution was added to all samples to initiate the reaction. Then, the samples were put back into the water bath and incubated for a period of time. The reaction was quenched with 200 μL of stop solution. The plate was centrifuged at 3,220 g for 10 minutes, 100 μL of supernatant was transferred, and 100 μL of water was added and mixed well to the assay plate for LC/MS/MS analysis.

In the next series the target is CYP2D6 (Homo sapiens (Human), UniProt P10635). Described as above. The note with it: mixed (pooled) human liver microsomes, read-out: Inhibition rate % CYP2D6. Here is the method: as §1
Chain of CYP2D6 (P10635 whole entry): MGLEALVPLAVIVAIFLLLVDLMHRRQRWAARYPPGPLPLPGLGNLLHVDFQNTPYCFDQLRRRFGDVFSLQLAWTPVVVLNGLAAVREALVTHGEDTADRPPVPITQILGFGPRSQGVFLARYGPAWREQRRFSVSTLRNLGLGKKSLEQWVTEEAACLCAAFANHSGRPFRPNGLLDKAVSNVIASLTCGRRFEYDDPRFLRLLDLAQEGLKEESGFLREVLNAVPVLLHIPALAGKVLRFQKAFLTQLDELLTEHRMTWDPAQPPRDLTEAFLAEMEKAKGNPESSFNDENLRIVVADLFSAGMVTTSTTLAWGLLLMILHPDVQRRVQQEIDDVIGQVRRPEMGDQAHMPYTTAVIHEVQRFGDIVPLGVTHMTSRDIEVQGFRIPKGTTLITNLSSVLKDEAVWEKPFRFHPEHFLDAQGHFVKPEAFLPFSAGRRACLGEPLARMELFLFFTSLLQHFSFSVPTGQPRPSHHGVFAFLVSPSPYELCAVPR
The next series has as its target CYP2C19 (Homo sapiens (Human), UniProt P33261). The description is as above. The settings on record: mixed (pooled) human liver microsomes, read-out: Inhibition rate % CYP2C19. How it is done:
as §1

A further series addresses CYP2B6 (Homo sapiens (Human), UniProt P20813). The description is as above. The settings on record: mixed (pooled) human liver microsomes, read-out: Inhibition rate % CYP2B6. How it is done: as §1
The next series concerns the target CYP3A4 (Homo sapiens (Human), UniProt P08684). The description is as above. The note with it: mixed (pooled) human liver microsomes, probe midazolam, read-out: Inhibition rate % CYP3A4 (midazolam). Here is the method:
as §1

The target of a further series is CYP1A2 (Homo sapiens (Human), UniProt P05177). The series is described as above. How it is done:
as §1

The next series deals with CYP2C9 (Homo sapiens (Human), UniProt P11712). Described as above. The settings on record: mixed (pooled) human liver microsomes, read-out: Inhibition rate % CYP2C9. How it is done: as §1
Chain of CYP2C9 (P11712 whole entry): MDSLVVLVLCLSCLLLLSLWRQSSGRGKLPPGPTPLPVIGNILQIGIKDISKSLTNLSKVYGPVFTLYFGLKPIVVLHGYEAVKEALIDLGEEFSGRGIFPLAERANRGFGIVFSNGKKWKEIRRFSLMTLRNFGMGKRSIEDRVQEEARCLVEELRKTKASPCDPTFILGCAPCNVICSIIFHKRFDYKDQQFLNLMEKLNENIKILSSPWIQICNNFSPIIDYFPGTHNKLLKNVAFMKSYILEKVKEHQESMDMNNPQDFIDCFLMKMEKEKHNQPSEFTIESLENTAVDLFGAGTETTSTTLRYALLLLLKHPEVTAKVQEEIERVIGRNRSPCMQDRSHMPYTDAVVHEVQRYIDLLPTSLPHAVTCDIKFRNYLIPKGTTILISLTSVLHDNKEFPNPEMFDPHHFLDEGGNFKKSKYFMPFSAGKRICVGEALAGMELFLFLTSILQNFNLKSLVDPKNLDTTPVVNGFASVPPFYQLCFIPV

Chain of CYP2C8 (P10632 whole entry): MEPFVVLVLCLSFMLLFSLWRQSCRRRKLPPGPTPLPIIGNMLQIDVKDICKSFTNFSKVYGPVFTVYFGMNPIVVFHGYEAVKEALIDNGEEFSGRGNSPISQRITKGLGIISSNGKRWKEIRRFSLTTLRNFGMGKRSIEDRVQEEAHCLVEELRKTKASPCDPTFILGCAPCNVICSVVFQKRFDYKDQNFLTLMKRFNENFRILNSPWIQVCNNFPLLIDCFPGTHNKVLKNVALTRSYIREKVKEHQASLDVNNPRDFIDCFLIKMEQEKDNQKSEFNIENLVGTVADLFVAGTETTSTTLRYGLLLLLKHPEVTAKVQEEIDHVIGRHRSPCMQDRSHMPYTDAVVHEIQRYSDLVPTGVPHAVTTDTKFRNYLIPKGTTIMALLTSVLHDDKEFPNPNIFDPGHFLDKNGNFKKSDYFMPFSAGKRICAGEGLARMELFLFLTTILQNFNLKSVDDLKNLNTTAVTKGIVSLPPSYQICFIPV
Chain of CYP1A2 (P05177 whole entry): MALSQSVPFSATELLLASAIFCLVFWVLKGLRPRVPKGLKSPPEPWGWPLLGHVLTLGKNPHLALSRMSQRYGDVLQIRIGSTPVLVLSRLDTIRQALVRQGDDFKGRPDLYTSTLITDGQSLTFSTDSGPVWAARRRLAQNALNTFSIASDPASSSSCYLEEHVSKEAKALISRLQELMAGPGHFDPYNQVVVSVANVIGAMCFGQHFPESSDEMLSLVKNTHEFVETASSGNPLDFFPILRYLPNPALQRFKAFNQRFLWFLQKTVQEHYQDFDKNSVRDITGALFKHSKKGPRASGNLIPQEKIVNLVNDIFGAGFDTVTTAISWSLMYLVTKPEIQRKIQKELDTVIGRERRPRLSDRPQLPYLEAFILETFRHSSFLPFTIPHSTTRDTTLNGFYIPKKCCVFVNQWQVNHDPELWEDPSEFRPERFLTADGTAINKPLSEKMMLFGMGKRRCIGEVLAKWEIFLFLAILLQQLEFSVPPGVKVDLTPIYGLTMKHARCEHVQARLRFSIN
Chain of CYP3A4 (P08684 whole entry): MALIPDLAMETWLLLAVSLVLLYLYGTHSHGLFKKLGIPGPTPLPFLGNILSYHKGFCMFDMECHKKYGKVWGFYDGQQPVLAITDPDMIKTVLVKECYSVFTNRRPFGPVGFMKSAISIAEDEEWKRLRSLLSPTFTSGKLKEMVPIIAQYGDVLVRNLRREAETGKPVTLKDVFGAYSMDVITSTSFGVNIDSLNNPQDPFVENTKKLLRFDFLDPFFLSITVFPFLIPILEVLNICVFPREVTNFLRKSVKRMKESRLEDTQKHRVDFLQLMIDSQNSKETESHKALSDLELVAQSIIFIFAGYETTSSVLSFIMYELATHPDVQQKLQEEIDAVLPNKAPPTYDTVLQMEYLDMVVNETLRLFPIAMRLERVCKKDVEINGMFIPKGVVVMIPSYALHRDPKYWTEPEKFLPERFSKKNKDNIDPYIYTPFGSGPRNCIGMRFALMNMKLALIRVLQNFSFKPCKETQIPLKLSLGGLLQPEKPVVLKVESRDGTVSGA
Chain of CYP2B6 (P20813 whole entry): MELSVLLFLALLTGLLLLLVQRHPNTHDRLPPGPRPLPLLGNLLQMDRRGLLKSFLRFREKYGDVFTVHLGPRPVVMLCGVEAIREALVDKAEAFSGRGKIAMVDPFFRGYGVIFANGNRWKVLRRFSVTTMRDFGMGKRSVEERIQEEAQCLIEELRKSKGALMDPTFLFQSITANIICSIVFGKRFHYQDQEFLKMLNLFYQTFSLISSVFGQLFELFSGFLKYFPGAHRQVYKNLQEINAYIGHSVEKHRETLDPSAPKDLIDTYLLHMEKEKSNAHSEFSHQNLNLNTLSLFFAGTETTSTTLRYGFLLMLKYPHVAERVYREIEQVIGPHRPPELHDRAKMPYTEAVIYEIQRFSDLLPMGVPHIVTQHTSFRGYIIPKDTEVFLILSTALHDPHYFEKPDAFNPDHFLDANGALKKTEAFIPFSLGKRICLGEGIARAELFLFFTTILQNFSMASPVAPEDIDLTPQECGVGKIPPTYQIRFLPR
Chain of CYP2C19 (P33261 whole entry): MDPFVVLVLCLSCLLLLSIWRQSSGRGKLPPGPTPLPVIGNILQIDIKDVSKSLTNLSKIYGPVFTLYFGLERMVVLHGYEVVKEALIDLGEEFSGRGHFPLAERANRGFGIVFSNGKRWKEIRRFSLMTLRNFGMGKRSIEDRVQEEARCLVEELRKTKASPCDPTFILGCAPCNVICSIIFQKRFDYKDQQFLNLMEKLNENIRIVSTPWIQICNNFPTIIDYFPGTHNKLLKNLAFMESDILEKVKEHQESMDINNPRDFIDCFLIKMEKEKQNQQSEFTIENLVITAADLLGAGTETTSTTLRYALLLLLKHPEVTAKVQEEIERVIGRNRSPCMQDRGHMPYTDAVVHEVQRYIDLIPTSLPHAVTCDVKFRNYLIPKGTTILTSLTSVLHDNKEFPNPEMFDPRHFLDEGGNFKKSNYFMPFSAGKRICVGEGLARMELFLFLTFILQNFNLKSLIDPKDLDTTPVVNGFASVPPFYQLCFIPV

On to `COC(=O)NS(=O)(=O)c1sc(CC(C)C)c(C)c1-c1ccc(Cn2ccnc2Cl)cc1` [Compound I-34, Methyl ((3-(4-((2-chloro-1H-imidazol-1-yl)methyl)phenyl)-5-isobutyl-4-methylthiophen-2-yl)sulfonyl)carbamate], for which the half-life at 1 μM is 45 min in series [1], 61.9 min in series [2] and 122 min in series [4]. In [3], this compound had a Papp A→B at 2 h, 2 μM of 3.13 ×10⁻⁶ cm/s. In addition, the inhibition at 10 µM is 71.8% at CYP2C8; 12.6% on CYP2D6; 36.5% at CYP2C19; 13.7% on CYP2B6; 3.8% at CYP3A4; 2.82% on CYP1A2. On CYP2C9, the inhibition at 10 µM was determined as 77.3%.
